System: enteroendocrine STC1-1 cell line
Assay: In-vitro relative CCK release from enteroendocrine cells (Example 4, RIA)
Assay type: cell-based
Conditions: 100 μM in free fatty acid form, 1 hour; for Relative amount of CCK released: measured in 6-fold
Method: The relative CCK release by a number of different compounds was determined in vitro an in-vitro trial to measure the effect of various free fatty acids on CCK release from intestinal cells.
Cells were routinely passaged upon reaching 70-80% confluency by washing the cell layer with PBS and incubating with a solution of trypsin-EDTA. Plating density of 2×10^6 cells by 75 cm^2 was used for routine subculture.
STC1 cells were seeded into 6-well culture plates and incubated with control culture medium, with or without the tested agents, for 1 hour. All agents were tested at a 100 μM concentration in the free fatty acid form. Since fatty acids were diluted into ethanol the effect of ethanol was tested and indicated the baseline CCK levels. […] Effects of bombesin was used as positive control. At the end of incubation the supernatant was collected, centrifuged and immediately frozen at −20° C. for RIA.
Cell viability was checked by microscopic analysis, analyzing DNA content which was measured by fluorometry after extraction of the culture cell contents, and in addition LDH release was measured.
CCK release was measured using a standard CCK RIA and effects of fatty acids were measured in 6-fold.

Compound	Ability to induce CCK (in words)	Level of CCK relative to negative control capric acid	Relative amount of CCK released
CCCCC/C=C\C/C=C\CCCC/C=C\CCCC(=O)O [sciadonic acid]	not able to induce high amounts of CCK	about 2 fold	–
CCCCCCCCC=CCC/C=C\CCCC(=O)O [taxoleic acid, cis-5,9 octadecadienoic acid]	not able to induce high amounts of CCK	about 2 fold	–
CCCC/C=C/C=C/C=C\CCCCCCCC(=O)O [Alpha-eleostearic acid 18:3, Alpha-eleostearic acid]	good inducers of CCK	–	212
CC/C=C\C/C=C\C/C=C\CCCC/C=C\CCCC(=O)O [juniperonic acid]	not able to induce high amounts of CCK	about 2 fold	–
CCCC\C=C/C=C/C=C\CCCCCCCC(=O)O [Punicic acid 18:3, Punicic acid]	good inducers of CCK	–	320
CCCCCC=CC/C=C\CCCCCCCC(=O)O [Linoleic acid 18:2, cis-9,12 octadecadienoic acid]	not able to induce high amounts of CCK	about 2 fold	68
CCCCCCCC/C=C\CCCCCCCC(=O)O [Oleic acid 18:1, cis-9 octadecenoic acid]	not able to induce high amounts of CCK	about 2 fold	90
CCCCCCCCCC(=O)O [Capric acid]	–	–	43
CC/C=C\C/C=C\C/C=C\CCCCCCCC(=O)O [Alpha-linolenic acid 18:3, Alpha-linolenic acid]	good inducers of CCK	–	177
CCCCC/C=C\C/C=C\C/C=C\CCCCC(=O)O [Gamma-linolenic acid 18:3, Gamma-linolenic acid]	good inducers of CCK	–	140
